Assay type in all cases: biochemical
For test [1], the target named is T1, Dipeptidyl Peptidase I (cathepsin C) (Rattus norvegicus, UniProt P80067).
T1 construct: purchased Qiagen GmbH, Hilden, Germany
T1 sequence (P80067 25-462): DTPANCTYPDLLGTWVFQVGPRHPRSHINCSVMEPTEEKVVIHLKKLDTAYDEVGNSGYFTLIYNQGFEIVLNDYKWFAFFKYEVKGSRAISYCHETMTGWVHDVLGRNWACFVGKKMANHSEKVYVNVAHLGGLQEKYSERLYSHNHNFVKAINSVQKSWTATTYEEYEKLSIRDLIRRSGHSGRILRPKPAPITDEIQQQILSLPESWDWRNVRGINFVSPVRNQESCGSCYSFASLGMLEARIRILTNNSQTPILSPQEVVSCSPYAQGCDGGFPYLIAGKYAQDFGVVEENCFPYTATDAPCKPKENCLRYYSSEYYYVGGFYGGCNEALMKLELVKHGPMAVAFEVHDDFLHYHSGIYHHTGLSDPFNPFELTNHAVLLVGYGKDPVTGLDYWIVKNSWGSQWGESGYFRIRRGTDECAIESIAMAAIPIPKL
Description: Cross reacting enzymes: dipeptidyl peptidase I. To be noted: concentration range 1*10^−5 M-1*10^−7 M. As to the method:
(§1) Glutaminyl pyrrolidine or glutaminyl thiazolidine were tested for their cross reacting potency against dipeptidyl peptidase I, prolyl oligopeptidase and prolidase.
DP I or cathepsin C is a lysosomal cysteine protease which cleaves dipeptides from the N-terminus of their substrates (Gutman, H. R. & Fruton, J. S., 1948, J Biol. Chem., 174, 851-858). It is classified as a cysteine protease. The enzyme used was purchased from Qiagen (Qiagen GmbH, Hilden, Germany). In order to get a fully active enzyme, the enzyme was diluted 1000 fold in MES buffer pH5.6 (40 mM MES, 4 mM DTT, 4 mM KCl, 2 mM EDTA, 0.015% Brij) and pre-incubated for 30 min at 30° C. 50 μL glutaminyl pyrrolidine or glutaminyl thiazolidine in a concentration range of 1*10^−5 M-1*10^−7 M were admixed with 110 μL buffer-enzyme-mixture. The assay mixture was pre-incubated at 30° C. for 15 min After pre-incubation, 100 μL histidylseryl-para-nitroanilide (2*10^−5 M) were added and measurement of yellow color development due to para-nitroaniline release was performed at 30° C. and […] for 10 min, using a plate reader (HTS7000 plus, Applied Biosystems, Weiterstadt, Germany). The IC50-values were calculated using Graphit 4.0.15 (Erithacus Software, Ltd., UK). No inhibition of the DP I enzyme activity by glutaminyl pyrrolidine or glutaminyl thiazolidine was found.

Test [2] concerns the target T2, Prolidase from porcine kidney (Sus scrofa, UniProt A0A5G2QQV1).
T2 construct: Prolidase from porcine kidney (ICN Biomedicals, Eschwege, Germany); purchased ICN Biomedicals, Eschwege, Germany; host or cells: porcine kidney
T2 sequence (A0A5G2QQV1 1-463): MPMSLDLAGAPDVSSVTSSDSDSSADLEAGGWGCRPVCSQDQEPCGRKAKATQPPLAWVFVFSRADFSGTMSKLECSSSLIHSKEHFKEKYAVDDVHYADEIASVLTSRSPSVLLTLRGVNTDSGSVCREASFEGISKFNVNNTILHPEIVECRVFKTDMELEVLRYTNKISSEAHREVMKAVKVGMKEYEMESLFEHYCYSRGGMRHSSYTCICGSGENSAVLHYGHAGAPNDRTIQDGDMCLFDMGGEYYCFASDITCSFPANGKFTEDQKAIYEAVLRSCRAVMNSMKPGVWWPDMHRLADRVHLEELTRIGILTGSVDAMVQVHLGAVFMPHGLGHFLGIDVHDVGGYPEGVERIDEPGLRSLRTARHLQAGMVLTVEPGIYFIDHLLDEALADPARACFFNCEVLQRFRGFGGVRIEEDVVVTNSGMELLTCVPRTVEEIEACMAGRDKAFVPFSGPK
Description: Cross reacting enzymes: prolidase. The note with it: substrate Ile-Pro-OH. As to the method:
as §1
Prolidase (EC 3.4.13.9) was first described by Bergmann & Fruton (Bergmann, M. & Fruton, J. S., 1937, J Biol. Chem. 189-202). Prolidase releases the N-terminal amino acid from Xaa-Pro dipeptides and has a pH optimum between 6 and 9. Prolidase from porcine kidney (ICN Biomedicals, Eschwege, Germany). was solved (1 mg/mL) in assay buffer (20 mM NH4(CH3COO)2, 3 mM MnCl2, pH 7.6). In order to get a fully active enzyme the solution was incubated for 60 min at room temperature. 450 μL glutaminyl pyrrolidine or glutaminyl thiazolidine in an concentration range of 5*10^−3 M-5*10^−7 M were admixed with 500 μL buffer solution (20 mM NH4(CH3COO)2, pH 7.6) and 250 μL Ile-Pro-OH (0.5 mM in the assay mixture). The assay mixture was pre-incubated at 30° C. for 5 min After pre-incubation, 75 μL Prolidase (1:10 diluted in assay buffer) were added and measurement was performed at 30° C. and λ=220 nm for 20 min using a UV/Vis photometer, UVW (Thermo Spectronic, Cambridge, UK). The IC50-values were calculated using Graphit 4.0.15 (Erithacus Software, Ltd., UK).

The target of test [3] is T3, dipeptidyl peptidase IV from porcine kidney (Sus scrofa, UniProt P22411).
T3 construct: dipeptidyl peptidase IV from porcine kidney with a specific activity against glycylprolyl-4-nitroaniline of 37.5 U/mg; from tissue; host or cells: porcine kidney
Description: Ki-determination, DP IV from porcine kidney. The note with it: substrate glycylprolyl-4-nitroaniline, 30 °C, pH 7.6, competitive inhibition. As to the method:
For Kidetermination of glutaminyl pyrrolidine and glutaminyl thiazolidine, dipeptidyl peptidase IV from porcine kidney with a specific activity against glycylprolyl-4-nitroaniline of 37.5 U/mg and an enzyme concentration of 1.41 mg/mL in the stock solution was used.
100 μL glutaminyl pyrrolidine or glutaminyl thiazolidine in a concentration range of 1*10^−5 -1*10^−7 M (glutaminyl pyrrolidine) and 1*10^−6 M-1*10^−8 M (glutaminyl thiazolidine) respectively were admixed with 50 μL glycylprolyl-4-nitroaniline in different concentrations (0.4 mM, 0.2 mM, 0.1 mM, 0,05 mM) and 100 μl HEPES (40 mM, pH7.6; ion strength=0.125). The assay mixture was pre-incubated at 30 ° C. for 30 min. After pre-incubation, 20 μL DPIV (1:600 diluted) were added and measurement of yellow color development due to 4-nitroaniline release was performed at 30° C. and λ=405 nm for 10 min using a plate reader (HTS7000 plus, Applied Biosystems, Weiterstadt, Germany). The Ki-values were calculated using Graphit 4.0.15 (Erithacus Software, Ltd, UK) based on a competitive inhibition of DPIV by glutaminyl pyrrolidine or glutaminyl thiazolidine.

The record followed here is patent publication US20060287251A1, “Combination therapy for glycaemic control” (priority 2003, published 2006).

Structures are written as SMILES.

T3 sequence (P22411 whole entry): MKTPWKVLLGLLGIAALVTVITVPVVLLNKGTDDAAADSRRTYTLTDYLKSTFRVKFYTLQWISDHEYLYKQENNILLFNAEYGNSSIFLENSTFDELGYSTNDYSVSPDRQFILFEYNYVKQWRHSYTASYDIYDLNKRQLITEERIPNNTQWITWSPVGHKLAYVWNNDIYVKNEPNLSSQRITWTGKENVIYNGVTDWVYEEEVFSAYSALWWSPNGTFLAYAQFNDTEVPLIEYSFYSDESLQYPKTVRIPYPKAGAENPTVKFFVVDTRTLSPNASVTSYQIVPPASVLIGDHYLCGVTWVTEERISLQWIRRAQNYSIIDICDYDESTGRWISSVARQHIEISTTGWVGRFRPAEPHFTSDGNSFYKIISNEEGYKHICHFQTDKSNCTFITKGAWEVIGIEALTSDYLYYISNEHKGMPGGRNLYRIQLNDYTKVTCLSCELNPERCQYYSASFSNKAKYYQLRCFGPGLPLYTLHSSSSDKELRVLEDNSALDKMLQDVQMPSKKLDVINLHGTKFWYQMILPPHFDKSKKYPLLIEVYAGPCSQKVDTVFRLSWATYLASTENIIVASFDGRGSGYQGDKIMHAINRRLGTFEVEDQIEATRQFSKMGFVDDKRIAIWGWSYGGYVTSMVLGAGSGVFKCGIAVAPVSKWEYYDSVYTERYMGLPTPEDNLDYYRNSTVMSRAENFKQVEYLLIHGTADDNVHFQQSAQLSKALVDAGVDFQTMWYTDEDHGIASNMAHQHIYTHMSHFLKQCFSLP

What is called IC50 is the concentration needed to halve the response being measured. The Ki is a dissociation constant, usually derived from enzyme kinetics or from competition with a known ligand. `NC(=O)CC[C@H](N)C(=O)N1CCSC1` [glutaminyl thiazolidine]: the “inhibition of the DP I enzyme activity” value in test [1] was “No inhibition”. Further, the IC50 in test [2] was more than 3000 µM. The Ki in test [3] was determined as 0.312 µM.

Consider `NC(=O)CC[C@H](N)C(=O)N1CCCC1` [glutaminyl pyrrolidine], for which the “inhibition of the DP I enzyme activity” value in test [1] was “No inhibition”. This molecule came in with an IC50 in test [2] of 340 µM. For the same molecule, in test [3], the Ki was found to be 1.3 µM.
